Assay results as given in patent publication US6008222A (Bristol-Myers Squibb Company, priority 1997, dated 1999).
“Also recorded” adds a separate entry of the source. Values belong to the compound of their own block, whether it stands above or below them.

Assays:
[1] = human, in vivo; cited from earlier work
[2] = tested on: rat; conditions: systemic administration of 1-PP; cited from earlier work
[3] = human, in vivo
[4] = tested on: diazepam-naive subjects; conditions: previous studies; cited from earlier work
[5] = in vivo, cited from earlier work
[6] = tested on: diazepam-withdrawn animals; conditions: cited from earlier work
[7] = tested on: anxiolytic activity; conditions: cited from earlier work
[8] = six subject pharmacokinetic study: buspirone and 1-PP blood levels following seven days of drug administration
[9] = tested on: patients undergoing diazepam-withdrawal; conditions: human, in vivo; cited from earlier work
[10] = clinical; conditions: human, in vivo, po
[11] = tested on: antidepressant effect; conditions: co-administered with an antidepressant drug regimen such as fluoxetine; cited from earlier work
[12] = tested on: anxiety disorders and depression; conditions: U.S. Pat. No. 3,717,634; cited from earlier work
[13] = tested on: cytochrome P4503A3/4; conditions: J. Clin. Psychiatry, 57:7, July 1996; cited from earlier work
[14] = tested on: cytochrome P4503A4; conditions: cited from earlier work
[15] = J. Clin. Psychiatry, 57:7, July 1996; cited from earlier work

SMILES: c1cnc(N2CCNCC2)nc1 [1-PP, 1-(2-pyrimidinyl)-piperazine]
association of high 1-PP levels with undesired or adverse events [1]: associated with the occurrence of undesired or adverse events
antagonism of intracerebral buspirone activity [2]: could be blocked
intra- and inter-patient variations in blood levels [3]: reduced
effect on social interaction [4]: not shown any effect
plasma levels of 1-PP [5]: much higher plasma levels
effect in social interaction paradigms [6]: anxiogenic effect
anxiolytic activity ([7]; certain tests / earlier animal testing): (weak) antianxiety activity; also recorded: weak anxiolytic activity
antagonism of the anxiolytic and/or antidepressant action of buspirone ([7]; other tests): antagonizes the desired anxiolytic and/or antidepressant action of buspirone

disappearance of buspirone ([8]; concurrent administration of nefazodone): delayed
intra- and inter-patient variations in blood levels [3]: reduced
AUC(0-t) at […] [10]: 29.4 ± 9.9 ng·h/mL
Cmax at […] [10]: 8 ± 3.3 ng/mL
Tmax at […] [10]: 1 h
half-life at […] ([10]; T1/2 of buspirone): 2.6 ± 1.8 h
SMILES: O=C1CC2(CCCC2)CC(=O)N1CCCCN1CCN(c2ncccn2)CC1 [Buspirone, 8-[4-[4-(2-pyrimidinyl)1-piperazinyl]butyl]-8-azaspiro(4,5)-decane,7,9-dione]
treatment of patients undergoing diazepam-withdrawal [9]: failed to adequately treat
absorption ([5]; po): rapidly absorbed
augmentation of an antidepressant effect [11]: effective
effectiveness for the treatment of anxiety disorders and depression [12]: effective

SMILES: CCc1nn(CCCN2CCN(c3cccc(Cl)c3)CC2)c(=O)n1CCOc1ccccc1 [Nefazodone]
inhibition of buspirone metabolism ([8]; in the presence of nefazodone, preliminary study data): marked inhibition of buspirone metabolism
inhibition of cytochrome P4503A3/4 [13]: inhibition
inhibition of cytochrome P4503A4 [14]: an inhibitor
effect on concentration and toxicity of alprazolam and triazolam [15]: increasing the concentration and toxicity of alprazolam and triazolam
